Format in all cases: cell-based, mouse
Experiment [1] relates to adult cardiac fibroblasts (ACFs). The experiment in a line: qPCR of cardiac genes in adult cardiac fibroblasts. As to conditions: infected ACFs treated with A83-01 for 4 weeks. On the procedure: (§1) Hearts or skinned tails from adult C57BL6 mice were cut into small pieces with ˜1 mm diameter. The biopsies were seeded on a 10 cm culture dish and incubated with 10 mL of growth medium (DMEM/Hi glucose (Hyclone), 10% FBS (Gemini:), 1.1% Penicillin-Streptomycin (Gibco) and 1.1% GlutaMAX supplement (Gibco)) at 37° C. with 5% CO2. TTFs migrated out of the biopsies after 3 days. The media were changed every other day. Once the TTFs have reached a 70-80% confluence, the cells were harvested and stored for future use.
(§2) Cells were harvested in TRizol reagent (Ambion) for RNA isolation. RNA was extracted with the RNeasy® Plus Universal Mini Kit (Qiagen). RT-PCR was performed using the Superscript III first-strand synthesis system (Invitrogen). qPCR was performed using the SYBR® Green PCR master mix (Applied Biosystems) or StepOne™ Real-Time PCR Systems (Applied Biosystems). Primers are listed in Supplementary Table 1. Ryr2 (Mm00465877_m1) and Myh7 (Mm01319006_91) are Taqman probes (Life technologies).

Experiment [2] relates to MEFs. The experiment in a line: Intracellular staining for flow cytometry (cTnT, Myc) in retrovirus-infected MEFs. The note with it: for cTnThigh fraction: day 7. Here is the method: C57BL6 pregnant mice at E13 were order from Charles River's laboratory. Embryos at E14.5 were harvested and their internal organs and head were removed. The body below the liver was minced using blade to fine pieces. Minced embryos were incubated with 2 ml of 0.25% trypsinIl mM EDTA, Phenol Red (Gibco) for 40 mins at 37° C. with 5% CO2. Cells were suspended in 25 ml of growth medium (DMEM/Hi glucose (Hyclone) 10% FBS (Gemini), 1.1% Penicillin-Streptomycin (Gibco) and 1.1% GlutaMAX supplement (Gibco)) and then plated on a 15 cm dish. In 24 hours, the media was aspirated and new 25 ml of growth medium was added. In 72 hours, MEFs were harvested and stored for future use.
(§3) Fibroblasts were plated on tissue culture dishes pre-coated with SureCoat (Cellutron) at a density of ˜40 cells/mm^2 before transduction. The fibroblast growth medium was replaced with freshly made viral mixture containing polybrene (Sigma). Twenty-four hours later, fibroblasts were infected again with viral mixture containing polybrene. Twenty fours later, the viral medium was replaced with induction medium, composed of DMEM/199 (4:1) (Gibco), 10% FBS (Gemini), 5% horse serum(Gemini), antibiotics (Gibco), 1× non-essential amino acids (Gibco), 1× essential amino acids (Gibco), 1× B-27 (Gibco), 1× insulin-selenium-transferin (Gibco), 1× vitamin mixture (Gibco), and 1× sodium pyruvate (Gibco). Medium was changed every two-three days until cells were examined.
Adherent fibroblasts were washed with DPBS (Gibco). Cells were detached from culture dish by treatment with 0.25% Trypsin/EDTA (Gibco) for 3 min at 37° C. Cells were then washed with 4 ml of 5% FBS (Gemini) in DPBS filtered through a cell strainer and centrifuge at 1200 rpm×6 mins. Cells were washed with 500 ul of 1% BSA in DPBS. Cells were fixed with BD Cytofix/Cytoperm™ solution in 0.2 ml/1 million cells in 1.5 ml eppendorf tube for 20 min on ice. Cells were washed with 1 ml of BD perm/wash buffer and Centrifuged for 6 min at 1200 rpm. The supernatant was discarded; cells were washed again with 1 ml of BD Perm/wash buffer and left overnight at 4° C. The next day, Cells were centrifuged for 6 min at 1200 rpm, the supernatant discarded and 100 μl of Blocking buffer made with 5% goat, donkey serum (Sigma: G9023 and D9663) in Perm/wash buffer was added to the cells and incubated for 30 min at RT. A primary antibody: Mouse Troponin T (cTnT) antibody (Thermo Scientific, ms-295-p, 1:200), mouse anti-C-Myc antibody (BD Pharmingen, 551102, 1:200) in 100 μl BD Perm/Wash buffer was added to the cells and incubated for 1 hr at RT. One ml cold BD Perm/wash buffer was added to the cells and centrifuged for 6 min at 1200 rpm. […] Cells were re-suspended in 300 ul of 1% BSA/DPBS and then analyzed using FACS Caliber (BD Sciences) and FlowJo software.

Experiment [3] has as its system adult tail-tip fibroblasts (ATTFs). The experiment in a line: Immunocytochemistry for cTnT and α-actinin in adult tail-tip fibroblasts. The note with it: GHMT2m-infected ATTFs; DMSO or A83-01 for 2 weeks. On the procedure: as §1, §3
Cells were fixed in 2% PFA for 15 min on ice then washed with DPBS (Gibco) three times at RT. […]

The subject of experiment [4] is MEFs. In words: qPCR of cardiac genes in reprogramming MEFs. The note with it: reprogramming MEFs treated with A83-01 for 5 days, day 7. On the procedure: as §2
A general note: Real-time PCR tracks product formation cycle by cycle.

For experiment [5], the system named is MEFs. In words: Immunocytochemistry for cTnT and α-actinin in infected MEFs. As to conditions: day 14, without or with A83-01. Here is the method:
as §3
Cells were fixed in 2% PFA for 15 min on ice then washed with DPBS (Gibco) three times at RT. The cells were permeabilized in 0.5% Triton X-100 (made in PBS) for 20 min at RT. After washing the cells with DPBS (Gibco), cells were incubated with the primary antibody against α-actinin (Sigma A7811, 1:300), Connexin 43 (Sigma, C6219, 1:500), Troponin T (Thermo Scientific MS-245-P, 1:500), α-SMA (Santa Cruz Biotechnology, SC-32251, 1:800), Myl2 (Proteintech, 10906-1-AP, 1:200), or Myl7 (Proteintech, 17283-1-AP, 1:200) in 10% FBS(Gemini) in DPBS for 1 hour at RT. Cells were wash with DPBS three times, 5 min each. Cell were incubated with the secondary antibody (Alexa Fluor 555 Molecular Probes A21422, 1:1000) and Hoechest (Molecular Probes 33342, 1:5000) for 30 mins at RT.

SMILES strings stand for the structures.

Turning to `Cc1cccc(-c2nn(C(=S)Nc3ccccc3)cc2-c2ccnc3ccccc23)n1` [A83-01], the “expression of other cardiac genes, Actc1, Myh6 and Ryr2” value in experiment [1] is reported as “enhanced”. The cTnThigh fraction result was “approximately 45.6%” in the experiment with MEFs [2] (GHMT2m-infected MEFs, alone or treated with A83-01 (0.5 μM, day 3 to day 7)) and “approximately 30.7%” in the experiment on MEFs [2] (GHMT-infected MEFs, alone or treated with TGF-β1 (10 ng/ml) or A83-01 (0.5 μM, day 3 to day 7)). In addition, the “induction of cTnT+ cells by the small molecule alone” value with MEFs [2] (MEFs without reprogramming factors, flow cytometry) is “did not induce cTnT+ cells”. Besides, the “adult TTFs positive for cTnT and α-actinin” value in experiment [3] is listed as “approximately 30%”. In addition, the “program of cardiomyocyte gene expression” value in the experiment on MEFs [4] is given as “enhanced”. Further, the “proportion of cTnT+ cells (immunostaining)” value in the experiment with MEFs [5] (GHMT2m-cultures of MEFs) is given as approximately 67%; with MEFs [5] (GHMT-cultures of MEFs), “approximately 58%”. In addition, the “proportion of α-actinin+ cells (immunostaining)” value was approximately 64% in the experiment on MEFs [5] (GHMT2m-cultures of MEFs) and “approximately 57%” in the experiment on MEFs [5] (GHMT-cultures of MEFs).

The record behind these values is patent US10519423B1, “High efficiency reprogramming of fibroblasts into cardiomyocytes” (The Regents of the University of Colorado, a body corporate, priority 2015, dated 2019).
